{"source": "patent US10183047B2", "about": "“Chromium-containing compositions in combination with Phyllanthus emblica and shilajit having synergistic effects for improving endothelial function and cardiovascular health” (Natreon, Inc., priority 2014, dated 2019)", "type_in_all_cases": "in vivo, human", "key": {"lipid profile [1]": {"tested_on": "lipid profile", "assay": "Lipid profile (TC, HDL-C, LDL-C, TG), metabolic syndrome subjects", "excerpt": "(§1) All the subjects had undergone complete physical examination, safety lab evaluations at baseline and at the end of the treatment. Samples were collected after an overnight fast of 12 hrs after the last dose of medication for determination of hemoglobin, glycosylated hemoglobin (HbA1c), blood urea, serum creatinine, liver function, lipid profile (Total cholesterol, High density lipoprotein cholesterol (HDL-C), low density lipoprotein cholesterol (LDL-C) using appropriate standard techniques.\nPatients included in the study, were of either gender, aged 30-68 years, having endothelial dysfunction defined as ≤6% change in reflection index (RI) on post salbutamol challenge test and central obesity as defined by The International Diabetes Federation guidelines, dated 2006, and any two of the following conditions: […]\n(§2) Subjects were reviewed for follow up at 4 weeks, 8 and 12 weeks of therapy. At each visit they were evaluated for efficacy and safety. Pharmacodynamic evaluation for endothelial function was conducted at baseline and end of treatment. Blood samples were collected for evaluation of biomarkers before and at end of treatment. Safety lab investigations for hematological, hepatic and renal biochemical parameters were conducted before and at the end of the study and also as and when required (in case of any adverse drug reaction (ADR)). Subjects were enquired for the presence of ADR and the same was recorded in the case report form. Compliance to therapy was assessed by pill count method.\nAssessment of endothelial function, biomarkers, safety parameters and primary and secondary efficacy parameters and data analysis were performed as described under the study with type 2 diabetic subjects in Example 1.\n(§3) When the results with Crominex® 3+ in the above two examples were highly significant, especially with the 400 mcg once daily dose in type 2 diabetics, two more clinical studies (EXAMPLES 3 & 4) were conducted at the same institute, following the same methodology as described earlier, on the individual components of Crominex® 3+, i.e., chromium chloride and Phyllanthus emblica+Shilajit, and other chromium supplements available in the market, i.e., chromium picolinate, chromium polynicotinate and chromium dinicocysteinate, in type 2 diabetics as well as in subjects with metabolic syndrome symptoms."}, "fasting plasma glucose [2]": {"tested_on": "fasting plasma glucose", "assay": "Fasting plasma glucose, metabolic syndrome subjects", "excerpt": "(§4) Patients included in the study, were of either gender, aged 30-68 years, having endothelial dysfunction defined as ≤6% change in reflection index (RI) on post salbutamol challenge test and central obesity as defined by The International Diabetes Federation guidelines, dated 2006, and any two of the following conditions:\n(§5) After screening, all the eligible subjects were randomized to receive either one of the three treatments orally for duration of 12 weeks: group 1—one capsule of Crominex®3+ 200 mcg once daily; group 2—one capsule 400 mcg once daily; group 3—one capsule of Placebo once daily.\nas §2, §3"}, "lipid profile [3]": {"tested_on": "lipid profile", "assay": "Lipid profile (TC, HDL-C, LDL-C, TG, VLDL-C), type 2 diabetics", "procedure": "(§6) The present clinical study is a prospective, randomized, double blind, placebo-controlled study. Patients of either sex, aged 30-65 years, fasting plasma glucose of 110-126 mg/dl, a glycosylated hemoglobin (HbA1c) between 6.5% and 8% and taking stable dose of anti-diabetic treatment (metformin 1500-2000 mg/day) for the past 8 weeks prior to the screening visit; and having endothelial dysfunction defined as ≤6% change in reflection index (RI) on post salbutamol challenge test were included in the study. Patients with severe uncontrolled hyperglyceamia, uncontrolled hypertension, cardiac arrhythmia, impaired hepatic or renal function, history of malignancy or stroke, smoking, chronic alcoholism, any other serious disease requiring active treatment and treatment with any other herbal supplements, were excluded from the study.\n(§7) After screening, all the eligible subjects were randomized to receive either one of the three treatments orally for duration of 12 weeks—Group1—one capsule of Crominex®3+, 200 mcg once daily, Group 2—one capsule Crominex®3+, 400 mcg once daily; Group 3—one capsule of placebo once daily.\nas §2, with “Subjects were required for follow” for “Subjects were reviewed for follow”, “up at 4, 8 and” for “up at 4 weeks, 8 and”, “conducted at every visit. Blood samples” for “conducted at baseline and end of treatment. Blood samples”, “and at the end of” for “and at end of”, “drug reaction (ADR). Subjects were” for “drug reaction (ADR)). Subjects were”\nas §1, §3"}, "[4]": {"tested_on": "Glycosylated Hemoglobin A1c (HbA1c)", "assay": "Glycosylated hemoglobin A1c, type 2 diabetics", "procedure": "as §6, §7\nas §2, with “Subjects were required for follow” for “Subjects were reviewed for follow”, “up at 4, 8 and” for “up at 4 weeks, 8 and”, “conducted at every visit. Blood samples” for “conducted at baseline and end of treatment. Blood samples”, “and at the end of” for “and at end of”, “drug reaction (ADR). Subjects were” for “drug reaction (ADR)). Subjects were”\nas §1, §3"}, "fasting plasma glucose [5]": {"tested_on": "fasting plasma glucose", "assay": "Fasting plasma glucose, type 2 diabetics", "procedure": "as §3"}, "[6]": {"assay": "Blood pressure, metabolic syndrome subjects", "conditions": "metabolic syndrome subjects (Example 4), chromium products 400 mcg", "excerpt": "as §4, §5, §2, §3"}, "[7]": {"tested_on": "high sensitivity C-reactive protein (hsCRP)", "assay": "hsCRP by ELISA, type 2 diabetics", "procedure": "as §6, §7\nas §2, with “Subjects were required for follow” for “Subjects were reviewed for follow”, “up at 4, 8 and” for “up at 4 weeks, 8 and”, “conducted at every visit. Blood samples” for “conducted at baseline and end of treatment. Blood samples”, “and at the end of” for “and at end of”, “drug reaction (ADR). Subjects were” for “drug reaction (ADR)). Subjects were”\nNitric oxide, MDA, Glutathione and levels were estimated spectrophotometrically as follows. Malondialdehyde (MDA) levels were determined as described in Vidyasagar, et al., “Oxidative stress and antioxidant status in acute organophosphorous insecticide poisoning,” Indian J. Pharmacol. (April 2004) 36(2): 76-79. Glutathione levels were determined as described in G. L. Ellman, Arch. Biochem. Biophys. (1959) 82: 70-77 (original determination). Nitric oxide levels were estimated spectrophotometrically as described in Miranda, et al., “A Rapid, Simple Spectrophotometric Method for Simultaneous Detection of Nitrate and Nitrite,” NITRIC OXIDE: Biology and Chemistry (2001) Vol. 5, No. 1, pp. 62-71. hsCRP (high sensitivity C-reactive protein) was determined by ELISA method.\nas §3"}, "[8]": {"conditions": "metabolic syndrome subjects (Example 4), chromium products 400 mcg, after 12 weeks of treatment"}, "[9]": {"conditions": "metabolic syndrome subjects (Example 4), chromium products 400 mcg, pre-treatment"}, "[10]": {"conditions": "type 2 diabetics (Example 3), chromium products 400 mcg, 12 weeks of treatment"}, "[11]": {"conditions": "type 2 diabetics (Example 3), chromium products 400 mcg, post-treatment, 12 weeks"}, "[12]": {"conditions": "type 2 diabetics (Example 3), chromium products 400 mcg, pre-treatment"}}}
{"substance": "chromium polynicotinate", "values": [{"measurement": "HDL", "setting": "lipid profile [1]; MS, 400 mcg", "result": "−1.55", "unit": "%"}, {"measurement": "LDL", "setting": "lipid profile [1]; MS, 400 mcg", "result": 1.86, "unit": "%"}, {"measurement": "TC", "setting": "lipid profile [1]; MS, 400 mcg", "result": 0.95, "unit": "%"}, {"measurement": "TG", "setting": "lipid profile [1]; MS, 400 mcg", "result": 0.83, "unit": "%"}, {"measurement": "LDL-C, mean percentage change", "setting": "lipid profile [1]; mean percentage change after 12 weeks of treatment, 400 mcg, Example 4", "result": 1.86, "unit": "%"}, {"measurement": "HDL-C Post Tt", "setting": "lipid profile [1]; [8]", "result": "36.20 ± 5.15", "unit": "NS mg/dl"}, {"measurement": "LDL-C Post Tt", "setting": "lipid profile [1]; [8]", "result": "111.95 ± 12.95", "unit": "mg/dL"}, {"measurement": "Mean percentage change in HDL-C", "setting": "lipid profile [1]; [8]", "result": "−1.55 ± 4.17", "unit": "%"}, {"measurement": "Mean percentage change in Total Cholesterol", "setting": "lipid profile [1]; [8]", "result": "0.95 ± 1.33", "unit": "%"}, {"measurement": "Mean percentage change in Triglycerides", "setting": "lipid profile [1]; [8]", "result": "0.83 ± 1.22", "unit": "%"}, {"measurement": "Total Cholesterol Post Tt", "setting": "lipid profile [1]; [8]", "result": "182.75 ± 14.03", "unit": "mg/dL"}, {"measurement": "Triglycerides Post Tt", "setting": "lipid profile [1]; [8]", "result": "173.00 ± 9.33", "unit": "mg/dL"}, {"measurement": "HDL-C Pre Tt", "setting": "lipid profile [1]; [9]", "result": "36.85 ± 5.48", "unit": "mg/dL"}, {"measurement": "LDL-C Pre Tt", "setting": "lipid profile [1]; [9]", "result": "109.88 ± 12.76", "unit": "mg/dL"}, {"measurement": "Total Cholesterol Pre Tt", "setting": "lipid profile [1]; [9]", "result": "181.05 ± 13.98", "unit": "mg/dL"}, {"measurement": "Triglycerides Pre Tt", "setting": "lipid profile [1]; [9]", "result": "171.60 ± 9.43", "unit": "mg/dL"}, {"measurement": "Fasting Glucose", "setting": "fasting plasma glucose [2]; MS, 400 mcg", "result": "−4.14", "unit": "%"}, {"measurement": "Fasting Plasma Glucose Post Tt", "setting": "fasting plasma glucose [2]; [8]", "result": "95.95 ± 13.32", "unit": "NS"}, {"measurement": "Fasting Plasma Glucose Pre Tt", "setting": "fasting plasma glucose [2]; [9]", "result": "100.10 ± 14.00"}, {"measurement": "HDL", "setting": "lipid profile [3]; DM, 400 mcg", "result": "−1.23", "unit": "%"}, {"measurement": "LDL", "setting": "lipid profile [3]; DM, 400 mcg", "result": "−0.38", "unit": "%"}, {"measurement": "TC", "setting": "lipid profile [3]; DM, 400 mcg", "result": "−0.68", "unit": "%"}, {"measurement": "TG", "setting": "lipid profile [3]; DM, 400 mcg", "result": "−0.68", "unit": "%"}, {"measurement": "Mean percentage change in HDL-C", "setting": "lipid profile [3]; [10]", "result": "−1.23 ± 3.71 @NS %"}, {"measurement": "Mean percentage change in LDL-C", "setting": "lipid profile [3]; [10]", "result": "−0.38 ± 2.10 @NS %"}, {"measurement": "Mean percentage change in Total Cholesterol", "setting": "lipid profile [3]; [10]", "result": "−0.68 ± 1.21$NS %"}, {"measurement": "Mean percentage change in Triglycerides", "setting": "lipid profile [3]; [10]", "result": "−0.68 ± 0.83", "unit": "NS %"}, {"measurement": "HDL-C Post Tt", "setting": "lipid profile [3]; [11]", "result": "38.65 ± 1.42", "unit": "NS mg/dl"}, {"measurement": "LDL-C Post Tt", "setting": "lipid profile [3]; [11]", "result": "123.32 ± 8.70", "unit": "NS mg/dl"}, {"measurement": "Total Cholesterol Post Tt", "setting": "lipid profile [3]; [11]", "result": "198.00 ± 8.64 $^ mg/dl"}, {"measurement": "Triglycerides Post Tt", "setting": "lipid profile [3]; [11]", "result": "180.15 ± 3.84 @ mg/dl"}, {"measurement": "HDL-C Pre Tt", "setting": "lipid profile [3]; [12]", "result": "39.15 ± 1.23", "unit": "mg/dL"}, {"measurement": "LDL-C Pre Tt", "setting": "lipid profile [3]; [12]", "result": "123.97 ± 9.73", "unit": "mg/dL"}, {"measurement": "Total Cholesterol Pre Tt", "setting": "lipid profile [3]; [12]", "result": "199.40 ± 9.25", "unit": "mg/dL"}, {"measurement": "Triglycerides Pre Tt", "setting": "lipid profile [3]; [12]", "result": "181.40 ± 4.47", "unit": "mg/dL"}, {"measurement": "HbA1c (Abs.)", "setting": "[4]; DM, 400 mcg, absolute change", "result": "−0.01"}, {"measurement": "Absolute change in HbA1c", "setting": "[4]; type 2 diabetics (Example 3), chromium products 400 mcg, after 12 weeks treatment", "result": "0.01 ± 0.10 #NS %"}, {"measurement": "HbA1c Post Tt", "setting": "[4]; [11]", "result": "7.09 ± 0.13", "unit": "NS %"}, {"measurement": "HbA1c Pre Tt", "setting": "[4]; [12]", "result": "7.08 ± 0.08", "unit": "%"}, {"measurement": "Fasting Glucose", "setting": "fasting plasma glucose [5]; DM, 400 mcg", "result": 0.63, "unit": "%"}, {"measurement": "Fasting Plasma Glucose Post Tt", "setting": "fasting plasma glucose [5]; [11]", "result": "136.3 ± 7.86", "unit": "NS mg/dL"}, {"measurement": "Fasting Plasma Glucose Pre Tt", "setting": "fasting plasma glucose [5]; [12]", "result": "135.45 ± 7.45", "unit": "mg/dL"}, {"measurement": "Diastolic blood pressure Post Tt", "setting": "[6]; after 12 weeks of treatment", "result": "79.7 ± 2.85", "unit": "NS mmHg"}, {"measurement": "Systolic blood pressure Post Tt", "setting": "[6]; after 12 weeks of treatment", "result": "124.1 ± 4.88", "unit": "NS mmHg"}, {"measurement": "Diastolic blood pressure Pre Tt", "setting": "[6]; pre-treatment", "result": "81.2 ± 3.07", "unit": "mmHg"}, {"measurement": "Systolic blood pressure Pre Tt", "setting": "[6]; pre-treatment", "result": "125.9 ± 5.17", "unit": "mmHg"}, {"measurement": "hsCRP", "setting": "[7]; DM, 400 mcg", "result": "−11.45", "unit": "%"}, {"measurement": "Mean percentage change in hsCRP", "setting": "[7]; type 2 diabetics (Example 3), chromium products 400 mcg, 12 week treatment", "result": "−11.45 ± 12.28 #NS %"}, {"measurement": "hsCRP Post Tt", "setting": "[7]; [11]", "result": "2.43 ± 0.49", "unit": "mg/L"}, {"measurement": "hsCRP Pre Tt", "setting": "[7]; [12]", "result": "2.75 ± 0.47", "unit": "mg/L"}]}
